{
  "source": "patent US8026218B2",
  "about": "“Bifunctional analgesic compounds for opioid receptor agonists and neurokinin-1 receptor antagonists” (The University of Arizona, priority 2006, dated 2011)",
  "key": {"[1]": {"molecular_target": "T1, human δ opioid receptors (hDOR) (Homo sapiens, UniProt P41143)", "T1 construct": "expressed in transfected cells; host or cells: HN9.10 neuroblastoma cell line, pCDNA3, neomycin-selected clones", "T1 sequence (P41143 whole entry)": "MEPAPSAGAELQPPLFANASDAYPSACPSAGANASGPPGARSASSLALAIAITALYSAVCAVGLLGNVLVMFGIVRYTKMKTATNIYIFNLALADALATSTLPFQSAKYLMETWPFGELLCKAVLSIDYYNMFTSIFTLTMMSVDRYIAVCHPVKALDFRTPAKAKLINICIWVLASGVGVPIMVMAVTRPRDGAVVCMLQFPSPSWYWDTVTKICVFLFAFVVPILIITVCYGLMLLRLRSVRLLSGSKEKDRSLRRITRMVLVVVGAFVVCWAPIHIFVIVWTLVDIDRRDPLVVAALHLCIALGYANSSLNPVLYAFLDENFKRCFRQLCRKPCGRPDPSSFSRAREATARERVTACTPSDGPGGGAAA", "test": "Radioligand competition binding, [3H]DPDPE, hDOR membranes"}, "[2]": {"molecular_target": "T2, rat μ opioid receptors (rMOR) (Rattus norvegicus, UniProt P33535)", "T2 construct": "expressed in transfected cells; host or cells: HN9.10 neuroblastoma cell line, pCDNA3, neomycin-selected clones", "T2 sequence (P33535 whole entry)": "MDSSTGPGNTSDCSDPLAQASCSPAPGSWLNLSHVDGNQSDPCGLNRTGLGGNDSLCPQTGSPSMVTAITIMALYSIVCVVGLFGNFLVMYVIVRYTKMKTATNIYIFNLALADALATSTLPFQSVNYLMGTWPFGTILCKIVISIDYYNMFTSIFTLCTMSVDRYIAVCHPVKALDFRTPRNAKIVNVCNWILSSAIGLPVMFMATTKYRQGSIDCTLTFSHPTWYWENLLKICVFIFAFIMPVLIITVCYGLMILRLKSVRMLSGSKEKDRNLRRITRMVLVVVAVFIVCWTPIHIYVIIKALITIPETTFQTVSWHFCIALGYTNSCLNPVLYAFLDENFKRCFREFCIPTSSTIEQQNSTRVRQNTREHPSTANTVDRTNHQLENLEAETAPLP", "test": "Radioligand competition binding, [3H]DAMGO, rMOR membranes"}, "[3]": {"molecular_target": "T3, rat NK1 (rNK1) receptor (Rattus norvegicus, UniProt P14600)", "T3 construct": "expressed in transfected cells; host or cells: CHO (rNK-1/CHO cell line from Dr. James Krause)", "T3 sequence (P14600 whole entry)": "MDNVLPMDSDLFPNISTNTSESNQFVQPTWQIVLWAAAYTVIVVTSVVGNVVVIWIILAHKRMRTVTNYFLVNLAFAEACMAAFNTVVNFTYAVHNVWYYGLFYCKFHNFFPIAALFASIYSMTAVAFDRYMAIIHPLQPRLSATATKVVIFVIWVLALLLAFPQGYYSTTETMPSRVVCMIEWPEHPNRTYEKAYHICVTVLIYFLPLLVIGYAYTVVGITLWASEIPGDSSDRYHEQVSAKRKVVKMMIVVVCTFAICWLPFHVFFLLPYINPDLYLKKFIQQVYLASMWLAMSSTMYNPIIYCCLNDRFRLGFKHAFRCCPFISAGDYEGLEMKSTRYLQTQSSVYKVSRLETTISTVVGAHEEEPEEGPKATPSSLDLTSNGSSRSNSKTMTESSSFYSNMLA", "test": "Radioligand competition binding, [3H]substance P, rNK1/CHO membranes"}, "[4]": {"molecular_target": "T2, rat μ opioid receptors (rMOR)", "test": "biochemical", "type": "biochemical", "conditions": "for EC50: read-out: GTP binding rMOR EC50"}, "[5]": {"test": "In vitro stability in rat plasma at 37° C.", "type": "in vitro ADME", "conditions": "for half-life at 50 μg/mL: rat, rat plasma, FIG. 47, read-out: T1/2 in rat plasma; for stability in the rat plasma: words", "method": "The derivative compounds were tested for their metabolite stability. The compounds were incubated in rat plasma at 37° C., and aliquots were withdrawn at various time points and analyzed by HPLC to determine the concentration of remaining compound derivatives (FIGS. 15-16, 36, and 47-48).\nIn Vitro Stability of compound derivatives in Rat Plasm (Yamamoto, 2007, J. Am. Chem. Soc. submitted). Stock solution of compounds (50 mg/mL in DMSO) were diluted 1000-fold into rat plasma (Lot 24927, Pel-Freez Biologicals, Rogers, Ak.) to result in an incubation concentration of 50 μg/mL. All samples were incubated at 37° C. for 6 h, and 200 μL of aliquots were withdrawn at 1 h, 2 h, 4 h and 6 h. […] The samples were run in triplicate. Discussion."}, "[6]": {"molecular_target": "T4, human NK1 receptor (hNK1) (Homo sapiens, UniProt P25103)", "T4 construct": "expressed in transfected cells", "T4 sequence (P25103 whole entry)": "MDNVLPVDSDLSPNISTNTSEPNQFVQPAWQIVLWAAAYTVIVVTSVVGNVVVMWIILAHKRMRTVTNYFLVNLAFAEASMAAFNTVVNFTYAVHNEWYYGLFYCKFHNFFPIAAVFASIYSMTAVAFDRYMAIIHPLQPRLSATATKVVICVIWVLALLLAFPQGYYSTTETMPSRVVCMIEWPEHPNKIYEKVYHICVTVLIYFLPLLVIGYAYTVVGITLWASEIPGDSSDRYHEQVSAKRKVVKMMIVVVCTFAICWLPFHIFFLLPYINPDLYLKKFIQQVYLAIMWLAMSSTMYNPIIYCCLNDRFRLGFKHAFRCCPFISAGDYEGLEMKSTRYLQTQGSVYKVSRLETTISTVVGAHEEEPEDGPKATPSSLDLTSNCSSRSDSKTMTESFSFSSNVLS", "test": "Radioligand competition binding, [3H]-Substance P, hNK1"}, "[7]": {"molecular_target": "T5, δ opioid receptors (MVD) (Mus musculus, UniProt P32300)", "T5 construct": "from tissue; host or cells: mouse (ICR) isolated vas deferens", "T5 sequence (P32300 whole entry)": "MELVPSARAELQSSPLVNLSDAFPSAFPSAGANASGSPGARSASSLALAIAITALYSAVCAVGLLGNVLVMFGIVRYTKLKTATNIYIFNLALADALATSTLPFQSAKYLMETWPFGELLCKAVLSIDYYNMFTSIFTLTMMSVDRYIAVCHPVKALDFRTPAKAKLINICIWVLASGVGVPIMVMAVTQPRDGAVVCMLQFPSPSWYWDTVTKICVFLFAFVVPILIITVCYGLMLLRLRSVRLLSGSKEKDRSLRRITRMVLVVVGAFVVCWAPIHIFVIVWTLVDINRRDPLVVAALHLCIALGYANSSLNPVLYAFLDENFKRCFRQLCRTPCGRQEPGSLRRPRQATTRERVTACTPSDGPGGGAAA", "test": "Mouse isolated vas deferens (MVD) assay, opioid agonist"}, "[8]": {"molecular_target": "T6, Substance P receptors (guinea pig NK1) (Cavia porcellus, UniProt P30547)", "T6 construct": "from tissue; host or cells: guinea pig (Hartley) ileum LMMP, 1 μM naloxone present", "T6 sequence (P30547 whole entry)": "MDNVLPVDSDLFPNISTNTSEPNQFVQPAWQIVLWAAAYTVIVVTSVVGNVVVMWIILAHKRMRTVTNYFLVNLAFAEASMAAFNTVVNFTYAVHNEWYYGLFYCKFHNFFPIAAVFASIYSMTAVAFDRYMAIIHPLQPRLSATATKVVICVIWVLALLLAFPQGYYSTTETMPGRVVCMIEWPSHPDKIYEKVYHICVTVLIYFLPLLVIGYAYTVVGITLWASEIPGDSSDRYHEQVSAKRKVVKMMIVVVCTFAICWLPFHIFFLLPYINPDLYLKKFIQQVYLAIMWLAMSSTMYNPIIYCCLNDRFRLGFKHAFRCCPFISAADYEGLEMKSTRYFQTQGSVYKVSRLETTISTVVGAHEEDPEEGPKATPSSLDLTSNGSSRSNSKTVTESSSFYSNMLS", "test": "Guinea pig isolated ileum (GPI) assay with substance P stimulation in presence of 1 μM naloxone", "conditions": "Table 39; at 30 nM"}, "[9]": {"conditions": "Affinity rNK1 (Ki; nM), Table 23"}, "[10]": {"conditions": "Table 39, read-out: GTP binding rMOR Emax"}},
  "note": "Like-named read-outs stand apart in the source and are kept apart here. Bridge positions count the residues as written; N and C are the ends. Square brackets hold non-standard residues; d marks the D form. Peptide text beside a SMILES is read from it. * marks the point of attachment. NH(3,5-(CF3)2-benzyl) = FC(F)(F)c1cc(CN*)cc(C(F)(F)F)c1; X1 = OC[C@H]1OC(*)[C@H](O)[C@@H](O)[C@@H]1O; Dmt = Cc1cc(O)cc(C)c1C[C@H](N)C(=O)O; dPen = CC(C)(S)[C@@H](N)C(=O)O; Nle = CCCC[C@H](N)C(=O)O",
  "data": [
    {"compound": "CCCC[C@@H]1NC(=O)[C@H](Cc2ccccc2)NC(=O)CNC(=O)[C@H](NC(=O)[C@@H](N)Cc2ccc(O)cc2)C(C)(C)SSC(C)(C)[C@@H](C(=O)N[C@@H](Cc2c[nH]c3ccccc23)C(=O)NCc2cc(C(F)(F)F)cc(C(F)(F)F)c2)NC(=O)[C@@H]2CCCN2C1=O", "note": "[TY047] (HELM PEPTIDE1{Y.[CC(C)(S[*:3])[C@@H](N[*:1])C(=O)[*:2]].G.F.[Nle].P.[Pen].W.[FC(F)(F)c1cc(CN[*:1])cc(C(F)(F)F)c1]}$PEPTIDE1,PEPTIDE1,2:R3-7:R3$$$V2.0; N-terminus assumed)", "values": [
      {"measurement": "Ki", "setting": "[1]", "value": 152, "unit": "nM"},
      {"measurement": "Ki", "setting": "[2]", "value": 1970, "unit": "nM"},
      {"measurement": "Ki", "setting": "[3]; [9]", "value": 163, "unit": "nM"},
      {"measurement": "EC50", "setting": "[4]; Table 39", "value": 2910, "unit": "nM"},
      {"measurement": "half-life at 50 μg/mL", "setting": "[5]", "value": "> 24", "unit": "h"}
    ]},
    {"compound": "CCCC[C@@H]1NC(=O)[C@H](Cc2ccccc2)NC(=O)CNC(=O)[C@H](NC(=O)[C@@H](N)Cc2ccc(O)cc2)C(C)(C)SSC(C)(C)[C@H](C(=O)N[C@@H](Cc2c[nH]c3ccccc23)C(=O)NCc2cc(C(F)(F)F)cc(C(F)(F)F)c2)NC(=O)[C@@H]2CCCN2C1=O", "note": "[TY048] (H-Y[dPen]GF[Nle]P[dPen]W-{NH(3,5-(CF3)2-benzyl)}; disulfide 2-7; N-terminus assumed)", "values": [
      {"measurement": "Ki", "setting": "[3]; Table 23, read-out: Affinity rNK1 (Ki; nM)", "value": 26, "unit": "nM"},
      {"measurement": "Emax", "setting": "[4]; [10]", "value": 29, "unit": "%"},
      {"measurement": "half-life at 50 μg/mL", "setting": "[5]", "value": "> 24", "unit": "h"}
    ]},
    {"compound": "CC(C)C[C@H](NC(=O)[C@@H]1CCCN1C(=O)[C@@H]1NC(=O)[C@H](Cc2ccccc2)NC(=O)CNC(=O)[C@H](NC(=O)[C@@H](N)Cc2ccc(O)cc2)C(C)(C)SSC1(C)C)C(=O)N[C@@H](Cc1c[nH]c2ccccc12)C(=O)NCc1cc(C(F)(F)F)cc(C(F)(F)F)c1", "note": "[TY049]", "values": [
      {"measurement": "Ki", "setting": "[3]; [9]", "value": 4.54, "unit": "nM"},
      {"measurement": "Ki", "setting": "[6]", "value": 0.18, "unit": "nM"},
      {"measurement": "Emax", "setting": "[4]; read-out: GTP binding rMOR Emax", "value": 25, "unit": "%"},
      {"measurement": "half-life at 50 μg/mL", "setting": "[5]", "value": "> 24", "unit": "h"}
    ]},
    {"compound": "CCCC[C@H](NC(=O)[C@H](Cc1ccccc1)NC(=O)CNC(=O)[C@@H](C)NC(=O)[C@@H](N)Cc1ccc(O)cc1)C(=O)N1CCC[C@H]1C(=O)N[C@@H](CC(C)C)C(=O)N[C@@H](COC1O[C@H](CO)[C@@H](O)[C@H](O)[C@H]1O)C(=O)N[C@@H](Cc1c[nH]c2ccccc12)C(=O)NCc1cc(C(F)(F)F)cc(C(F)(F)F)c1", "note": "(some centres unmarked) [TY055]", "values": [
      {"measurement": "Ki", "setting": "[2]", "value": 30, "unit": "nM"},
      {"measurement": "Ki", "setting": "[6]", "value": 0.052, "unit": "nM"},
      {"measurement": "IC50", "setting": "[7]", "value": 17.4, "unit": "nM"},
      {"measurement": "GPI/LMMP SP Agonist (IC50; nM)", "setting": "[8]", "value": "none"},
      {"measurement": "stability in the rat plasma", "setting": "[5]", "value": "stable"}
    ]},
    {"compound": "CCCC[C@H](NC(=O)[C@H](Cc1ccccc1)NC(=O)CNC(=O)[C@@H](C)NC(=O)[C@@H](N)Cc1c(C)cc(O)cc1C)C(=O)N1CCC[C@H]1C(=O)N[C@@H](COC1O[C@H](CO)[C@@H](O)[C@H](O)[C@H]1O)C(=O)N[C@@H](Cc1c[nH]c2ccccc12)C(=O)NCc1cc(C(F)(F)F)cc(C(F)(F)F)c1", "note": "(some centres unmarked) [TY056] (H-[Dmt][dA]GF[Nle]PS(X1)W-{NH(3,5-(CF3)2-benzyl)}; N-terminus assumed)", "values": [
      {"measurement": "Ki", "setting": "[2]", "value": 1.9, "unit": "nM"},
      {"measurement": "Ki", "setting": "[3]; Affinity rNK1 (Ki; nM), Table 25", "value": 10, "unit": "nM"},
      {"measurement": "Ki", "setting": "[6]", "value": 0.0017, "unit": "nM"},
      {"measurement": "EC50", "setting": "[4]; Table 25", "value": 44.9, "unit": "nM"},
      {"measurement": "Emax", "setting": "[4]; Table 25, read-out: GTP binding rMOR Emax (%)", "value": 66, "unit": "%"},
      {"measurement": "Emax", "setting": "[4]; [10]", "value": 66, "unit": "%"},
      {"measurement": "IC50", "setting": "[7]", "value": 3.62, "unit": "nM"},
      {"measurement": "GPI/LMMP SP Agonist (IC50; nM)", "setting": "[8]", "value": "none"},
      {"measurement": "stability in the rat plasma", "setting": "[5]", "value": "stable"}
    ]}
  ]
}
